This is an account of results in ChEMBL document CHEMBL6087472, “Development and Discovery of a Selective Degrader of Casein Kinases 1 δ/ε” (J Med Chem, 2025).

Assay [1] addresses von Hippel-Lindau disease tumor suppressor/Casein kinase I isoform alpha (Homo sapiens) (UniProt P48729+P40337). The assay is described as follows: PROTAC activity at VHL/Hibit-fused CK1 alpha in human MV4-11 cells assessed as degradation of CK1-alpha at 10 to 30 uM incubated for 6 hrs by Western blot analysis. The assay is classed as cell-based. The conditions noted are these: dose 10-30 µM.

Another assay has as its system HEK293. As to the kind of experiment: Effect on DVL3 phosphorylation in human HEK293 cells at 1 uM measured after 6 hrs by Western blot analysis. The assay is classed as functional, cell-based.
The target of assay [2] is T1, von Hippel-Lindau disease tumor suppressor/Casein kinase I isoform delta (Homo sapiens, UniProt P48730+P40337). As to the kind of experiment: PROTAC activity at VHL/HiBit fused CK1 delta in human MV4-11 cells assessed as fold change at 2.5 uM measured after 6 hrs by Nano-Glo HiBit assay. The assay is classed as cell-based.
T1 sequence (P40337 whole entry, looked up, the tested form may be a part, canonical isoform): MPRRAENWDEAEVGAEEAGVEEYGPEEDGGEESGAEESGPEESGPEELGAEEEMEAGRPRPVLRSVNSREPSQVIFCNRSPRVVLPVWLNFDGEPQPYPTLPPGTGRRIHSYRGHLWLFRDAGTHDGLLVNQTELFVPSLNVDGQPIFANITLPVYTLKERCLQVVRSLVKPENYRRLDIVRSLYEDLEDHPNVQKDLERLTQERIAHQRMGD
T1 sequence (P48730 whole entry, looked up, the tested form may be a part, canonical isoform): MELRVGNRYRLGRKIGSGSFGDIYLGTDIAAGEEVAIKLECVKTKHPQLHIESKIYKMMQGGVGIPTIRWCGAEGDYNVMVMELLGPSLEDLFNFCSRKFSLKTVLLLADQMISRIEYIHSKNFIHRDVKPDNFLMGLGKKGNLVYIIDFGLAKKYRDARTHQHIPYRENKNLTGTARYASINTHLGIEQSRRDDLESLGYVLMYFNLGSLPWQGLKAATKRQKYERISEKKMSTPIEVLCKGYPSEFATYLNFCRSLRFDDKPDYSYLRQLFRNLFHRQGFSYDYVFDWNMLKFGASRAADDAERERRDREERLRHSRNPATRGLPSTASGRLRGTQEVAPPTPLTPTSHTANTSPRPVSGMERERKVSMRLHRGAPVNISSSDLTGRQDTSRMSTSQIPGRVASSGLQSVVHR
In assay [3] the target is T1, von Hippel-Lindau disease tumor suppressor/Casein kinase I isoform delta. As to the kind of experiment: PROTAC activity at VHL/HiBit fused CK1 delta in human MV4-11 cells assessed as fold change at 2.5 uM measured after 6 hrs in presence of 1 uM of MU1742 by Nano-Glo HiBit assay. The assay is classed as cell-based.
Assay [4] has the same target. As to the kind of experiment: PROTAC activity at VHL/CK1 delta in HEK293 cells assessed as induction of degradation of CK1 delta at upto 20 uM pretreated with LGK974 followed by compound addition and measured after 6 hrs by Western blot analysis. The assay is classed as cell-based.

SMILES strings stand for the structures. Calls of active or inactive are those of the source. The rule behind the calls is not given here.

Chain of von Hippel-Lindau disease tumor suppressor/Casein kinase I isoform alpha (Homo sapiens) (P40337 whole entry, looked up, the tested form may be a part, canonical isoform): as the sequence (P40337 whole entry, looked up, the tested form may be a part, canonical isoform) above
Chain of von Hippel-Lindau disease tumor suppressor/Casein kinase I isoform alpha (Homo sapiens) (P48729 whole entry, looked up, the tested form may be a part, canonical isoform): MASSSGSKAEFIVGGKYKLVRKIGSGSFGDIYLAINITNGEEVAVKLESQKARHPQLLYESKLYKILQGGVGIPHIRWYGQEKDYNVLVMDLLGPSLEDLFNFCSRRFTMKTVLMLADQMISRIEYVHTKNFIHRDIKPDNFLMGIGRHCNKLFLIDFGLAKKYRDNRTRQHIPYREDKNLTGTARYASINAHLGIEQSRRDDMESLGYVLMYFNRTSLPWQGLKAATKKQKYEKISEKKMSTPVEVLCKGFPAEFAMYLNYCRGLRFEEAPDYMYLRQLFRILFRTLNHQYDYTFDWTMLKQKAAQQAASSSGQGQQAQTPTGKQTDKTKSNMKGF

In the case of `Cc1ncsc1-c1ccc(CNC(=O)[C@H]2C[C@H](O)CN2C(=O)[C@H](NC(=O)CCCCCCC(=O)N2CCC(F)(Cn3cnc(-c4ccc(F)cn4)c3-c3ccnc4[nH]ccc34)CC2)C(C)(C)C)cc1`, the Activity entry in assay [1] was “Not active; Compound Showed Weak Degradation”. In addition, the outcome (with HEK293; in assay [4]) was Active. The fold change (FC) in assay [2] turned out to be 0.33; in assay [3] it was 0.97.
